# Measurements: paper PMC8025909, “Repurposing of Sitagliptin- Melittin Optimized Nanoformula against SARS-CoV-2; Antiviral Screening and Molecular Docking Studies” (Pharmaceutics, 2021)
# Molecular target: T1, SARS-CoV-2 3CL Protease (3C-like protease, Mpro, 3CLpro) (Severe acute respiratory syndrome coronavirus 2, UniProt P0DTD1)
# T1 construct: gene rep; full-length mature nsp5 a.a; supplier apparently BPS Bioscience
# Assay: biochemical
smiles,measurement,value
N[C@@H](CC(=O)N1CCn2c(nnc2C(F)(F)F)C1)Cc1cc(F)c(F)cc1F [sitagliptin],IC50,6.914 ± 0.034 µM
